# Patent publication US20100041089A1, “IMPROVED METHOD FOR DETECTING CHEMICAL […]” (priority 2006, published 2010)
# Test system: yeast genes (expressed mRNA)
# Assay: DNA chip measurement of expressed mRNA of yeast genes after culture with a toxic chemical substance
# Type: cell-based, Saccharomyces cerevisiae S288C
# Procedure: Yeast (Saccharomyces cerevisiae S288C (a SUC2mal mel gap2 CUP1)) were cultured at 25° C. on YPD medium (yeast extract 1%, polypeptone 2%, glucose 2%). One of toxic chemical substances was added to the cell at logarithmic growth phase, and the cell was further cultured for two hours. Cell was cultured without any chemical substance in the same condition, and was used as a control. Concentrations of the chemical substances were defined to inhibit the growth of the yeast but not lead to death.
# After the completion of cultivation, the culture was centrifuged to collect the cells. To the cells, sodium acetate buffer (50 mM sodium acetate, 10 mM EDTA, 1% SDS) was added, and the mixture was shaken at 65° C. for five minutes, followed by returning to room temperature, and obtaining the supernatant, which procedure was repeated two times. To the supernatant, ½ amount of a solution of phenol/chloroform (1:1) was added, and the mixture was centrifuged to give a supernatant, an equal amount of chloroform was added, and the mixture was centrifuged to give a supernatant. To the supernatant, an equal amount of isopropanol containing 0.3 M sodium acetate was added, and the mixture was allowed to stand at room temperature for 30 minutes, after which the mixture was centrifuged to give sediment of the whole RNAs. Seventy % ethanol was added to the sediment, and the mixture was again centrifuged to give sediment, which was then dried and dissolved in water. mRNA was isolated from the whole RNAs as followings. In view of the fact that a poly A chain is attached to the 3′ terminus of mRNA, a polynucleotide having a poly T structure which was immobilized on the surface of latex beads was used to trap the mRNA, and then the mRNA was washed and eluted with spine column (Oligotex-dT30<Super>mRNA Purification Kit, Takara). Reverse transcription of the mRNA was conducted with a reverse transcriptase (Super Script II Reverse Transcriptase; catalogue No. 18064-014, GibcoBRL) using fluorescence-labeled nucleotides to give cDNAs that were introduced with Cy3-dUTP or Cy5-dUTP during the reverse transcription.
# The labeled cDNAs were dissolved in TE buffer (10 mM Tris-HCl/1 mM EDTA, pH 8.0), and the solution was dropped on the DNA chip containing the whole genes of yeast (DNA Chip Research Inc. Japan) so that the cDNAs were hybridized on the DNA chip at 65° C. for over 12 hours. The fluoresces intensity of the DNA chip was read with a scanner, and the ratio relative to the fluorescence intensity resulting from the absence of chemical substance was estimated as the following, which is shown in Tables 1 to 9.
# In the Tables, “Intensity” indicated in the rightmost column is a value of the level of expressed mRNA of each gene in control cells as divided by the average level of the expressions of the whole genes. A gene of which mRNA level is lower in control, and is higher in cases of addition of chemical substance, is especially useful in the detection of toxic substances.
# Here, when a ratio of an amount of mRNA expressed in the presence of the chemical substance to an amount of mRNA expressed in the absence of the chemical substance is two or more, then it is considered significant.
smiles,measurement,setting,value
"Oc1cc(Cl)c(Cl)cc1Cl [(6), 2,4,5-Trichlorophenol]",The level of expressed mRNA in the presence of chemical substance/The level of expressed mRNA in the absence of chemical substance,"yeast gene YJR054W, cultured two hours with substance",0.7
same,The level of expressed mRNA in the presence of chemical substance/The level of expressed mRNA in the absence of chemical substance,yeast gene YKL039W,4.9
same,The level of expressed mRNA in the presence of chemical substance/The level of expressed mRNA in the absence of chemical substance,"yeast gene YKL071W, cultured two hours with substance",18.6
same,The level of expressed mRNA in the presence of chemical substance/The level of expressed mRNA in the absence of chemical substance,"yeast gene YKL086W, cultured two hours with substance",1.0
same,The level of expressed mRNA in the presence of chemical substance/The level of expressed mRNA in the absence of chemical substance,"yeast gene YKL151C, cultured two hours with substance",2.0
same,The level of expressed mRNA in the presence of chemical substance/The level of expressed mRNA in the absence of chemical substance,"yeast gene YKL153W, cultured two hours with substance",2.9
same,The level of expressed mRNA in the presence of chemical substance/The level of expressed mRNA in the absence of chemical substance,"yeast gene YKL195W, cultured two hours with substance",2.5
same,The level of expressed mRNA in the presence of chemical substance/The level of expressed mRNA in the absence of chemical substance,yeast gene YKR076W,4.7
same,The level of expressed mRNA in the presence of chemical substance/The level of expressed mRNA in the absence of chemical substance,"yeast gene YKR091W, cultured two hours with substance",1.0
same,The level of expressed mRNA in the presence of chemical substance/The level of expressed mRNA in the absence of chemical substance,"yeast gene YLR054C, cultured two hours with substance",1.2
same,The level of expressed mRNA in the presence of chemical substance/The level of expressed mRNA in the absence of chemical substance,"yeast gene YLR149C, cultured two hours with substance",1.4
same,The level of expressed mRNA in the presence of chemical substance/The level of expressed mRNA in the absence of chemical substance,"yeast gene YLR152C, cultured two hours with substance",2.1
same,The level of expressed mRNA in the presence of chemical substance/The level of expressed mRNA in the absence of chemical substance,"yeast gene YLR194C, cultured two hours with substance",0.9
same,The level of expressed mRNA in the presence of chemical substance/The level of expressed mRNA in the absence of chemical substance,"yeast gene YLR280C, cultured two hours with substance",0.9
same,The level of expressed mRNA in the presence of chemical substance/The level of expressed mRNA in the absence of chemical substance,"yeast gene YLR324W, cultured two hours with substance",1.2
same,The level of expressed mRNA in the presence of chemical substance/The level of expressed mRNA in the absence of chemical substance,"yeast gene YLR350W, cultured two hours with substance",1.6
same,The level of expressed mRNA in the presence of chemical substance/The level of expressed mRNA in the absence of chemical substance,"yeast gene YLR387C, cultured two hours with substance",1.9
same,The level of expressed mRNA in the presence of chemical substance/The level of expressed mRNA in the absence of chemical substance,"yeast gene YLR460C, cultured two hours with substance",0.6
same,The level of expressed mRNA in the presence of chemical substance/The level of expressed mRNA in the absence of chemical substance,"yeast gene YML117W, cultured two hours with substance",1.0
same,The level of expressed mRNA in the presence of chemical substance/The level of expressed mRNA in the absence of chemical substance,"yeast gene YML128C, cultured two hours with substance",5.1
same,The level of expressed mRNA in the presence of chemical substance/The level of expressed mRNA in the absence of chemical substance,"yeast gene YMR009W, cultured two hours with substance",1.2
same,The level of expressed mRNA in the presence of chemical substance/The level of expressed mRNA in the absence of chemical substance,"yeast gene YMR067C, cultured two hours with substance",1.4
same,The level of expressed mRNA in the presence of chemical substance/The level of expressed mRNA in the absence of chemical substance,"yeast gene YMR090W, cultured two hours with substance",3.8
same,The level of expressed mRNA in the presence of chemical substance/The level of expressed mRNA in the absence of chemical substance,"yeast gene YMR095C, cultured two hours with substance",0.7
same,The level of expressed mRNA in the presence of chemical substance/The level of expressed mRNA in the absence of chemical substance,"yeast gene YMR097C, cultured two hours with substance",1.2
same,The level of expressed mRNA in the presence of chemical substance/The level of expressed mRNA in the absence of chemical substance,"yeast gene YMR102C, cultured two hours with substance",6.3
same,The level of expressed mRNA in the presence of chemical substance/The level of expressed mRNA in the absence of chemical substance,"yeast gene YMR107W, cultured two hours with substance",1.0
same,The level of expressed mRNA in the presence of chemical substance/The level of expressed mRNA in the absence of chemical substance,"yeast gene YMR140W, cultured two hours with substance",17.1
same,The level of expressed mRNA in the presence of chemical substance/The level of expressed mRNA in the absence of chemical substance,yeast gene YMR173W (stress protein genes),5.0
same,The level of expressed mRNA in the presence of chemical substance/The level of expressed mRNA in the absence of chemical substance,"yeast gene YMR180C, cultured two hours with substance",2.4
same,The level of expressed mRNA in the presence of chemical substance/The level of expressed mRNA in the absence of chemical substance,"yeast gene YMR184W, cultured two hours with substance",0.9
same,The level of expressed mRNA in the presence of chemical substance/The level of expressed mRNA in the absence of chemical substance,"yeast gene YMR191W, cultured two hours with substance",1.0
same,The level of expressed mRNA in the presence of chemical substance/The level of expressed mRNA in the absence of chemical substance,"yeast gene YMR295C, cultured two hours with substance",1.9
same,The level of expressed mRNA in the presence of chemical substance/The level of expressed mRNA in the absence of chemical substance,"yeast gene YMR316W, cultured two hours with substance",0.7
same,The level of expressed mRNA in the presence of chemical substance/The level of expressed mRNA in the absence of chemical substance,"yeast gene YNL044W, cultured two hours with substance",0.9
same,The level of expressed mRNA in the presence of chemical substance/The level of expressed mRNA in the absence of chemical substance,"yeast gene YNL074C, cultured two hours with substance",1.7
